Measurements from patent publication US20110028447A1, “INDAZOLE DERIVATIVES” (Pfizer Inc., priority 2008, published 2011).
Where two headings read alike, the source gives them in different places.

Columns and labels:
human CB1 receptor [1] = target: T1, human CB1 receptor (Homo sapiens, UniProt P21554); test: [35S] GTPγS binding on membranes of CHO cells expressing the human CB1 receptor (agonism); type: biochemical; design: expressed in transfected cells; membrane preparation
Procedure: Membrane preparation: CHO cells expressing the human CB1 receptor were grown to 80% confluence in Ham's F-12 Nutrient Medium (Invitrogen) containing 10% fetal bovine serum (Invitrogen), 1% pen/strep (Invitogen), 1% Nonessential amino acids (Invitrogen) and 500 μg/ml G418 (Invitrogen). Cells were released from flasks using Cell Dissociation Buffer (Invitrogen). Cells were pelleted by centrifugation at 500×G for 5 minutes. Membranes were prepared by resuspending cells in ice cold Assay Buffer (25 mM Tris pH 7.4, 5 mM EDTA, 5 mM EGTA, Complete Protease Inhibitor (Roche)). Cells were lysed with 12 strokes of a dounce homogenizer. Unlysed cells were pelleted by centrifugation at 500×G for 5 minutes. Membranes were pelleted by centrifugation at 25,000×G for 30 minutes. Membranes were resuspended in TEE, dounced 12 strokes, and pelleted a second time at 25,000×G for 30 minutes. Membrane pellet was resuspended in 50 mM Tris pH 7.4, 100 mM NaCl, 3 mM MgCl2, 0.2 mM EGTA, Complete Protease Inhibitor (Roche). Protein concentration was determined using the Micro-BCA Protein Assay Kit (Pierce) using BSA as a standard. Membranes were frozen and stored at −80 degrees Celsius until use.
GTPγS Binding: 40 μl of test compound was incubated with 20 μl of [^35S] GTPγS (Perkin Elmer) (1250 Ci/millimole) and 140 μl of membrane homogenate (5 μg/well) in polypropylene 96-well plates (Corning). Final reaction conditions were 50 mM Tris pH 7.4, 100 mM NaCl, 3 mM MgCl2, 0.2 mM EGTA, 0.04% BSA. After incubation at 37 degrees Celsius for 45 minutes reactions were harvested by vacuum filtration through Unifilter GF/B-96 filters (Perkin Elmer) using a FilterMate Plate Harvester (Perkin Elmer). Filters were rinsed 4 times with ice cold 50 mM Tris pH 7.4, 3 mM MgCl2, 0.2 mM EGTA and dried at 50 degrees Celsius for at least 30 minutes. 40 μl of Microscint-20 (Perkin Elmer) was added per well, and plates were counted using a Top-Count Microplate Scintillation Counter (Perkin Elmer). Binding data were analyzed and EC50 values were calculated using Graph Pad Prism 4.0 Software.

human CB1 receptor [2] = target: T1, human CB1 receptor; test: Human CB1 receptor binding, [3H] CP-55,940 displacement on HEK cell membranes; design: expressed in transfected cells; host or cells: HEK cells, doxycycline-induced; membrane preparation
Method in brief: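 Membranes from doxycycline-induced HEK cells expressing human CB1 incubated 60 min at room temperature with [3H] CP-55,940 (final […]) in 50 mM Tris pH 7.4, 100 mM NaCl, 3 mM MgCl2, 0.2 mM EGTA, 0.04% BSA. Nonspecific binding defined with 50 μM WIN-55,212-2; filtration and scintillation counting gave EC50 and Ki.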

[3] = human CB1, CHO cell membranes, read-out: GTPγS EC50
[4] = GTPγS EC50, human CB1, CHO cell membranes

T1 sequence (P21554 whole entry): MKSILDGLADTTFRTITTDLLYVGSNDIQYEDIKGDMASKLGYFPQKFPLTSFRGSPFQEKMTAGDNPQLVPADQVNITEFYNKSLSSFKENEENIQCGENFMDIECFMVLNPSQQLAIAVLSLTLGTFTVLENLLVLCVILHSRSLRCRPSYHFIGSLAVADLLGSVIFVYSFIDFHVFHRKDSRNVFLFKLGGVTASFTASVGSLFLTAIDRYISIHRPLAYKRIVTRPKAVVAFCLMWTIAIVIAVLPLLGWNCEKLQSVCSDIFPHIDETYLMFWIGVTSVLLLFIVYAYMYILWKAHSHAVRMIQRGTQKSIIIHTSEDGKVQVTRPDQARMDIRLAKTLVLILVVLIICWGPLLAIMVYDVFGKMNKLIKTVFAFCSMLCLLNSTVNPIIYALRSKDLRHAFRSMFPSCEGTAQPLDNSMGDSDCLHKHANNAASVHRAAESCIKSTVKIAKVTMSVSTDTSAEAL

SMILES	EC50 (human CB1 receptor [1]; [3])	Ki (human CB1 receptor [2]; read-out: CB1 Ki)	EC50 (human CB1 receptor [1]; [4])	Ki (human CB1 receptor [2]; CB1 Ki)
CCOC(=O)c1nnc(CNC(=O)[C@@H](NC(=O)c2nn(Cc3ccc(F)cc3)c3ccccc23)C(C)(C)C)o1 [Example 128]	3.58 nM	0.97 nM	–	–
CCOC(=O)c1nnc(CNC(=O)[C@@H](NC(=O)c2nn(Cc3ccc(C#N)cc3)c3ccccc23)C(C)(C)C)o1 [Example 129]	106 nM	12.6 nM	–	–
CC(C)(C)C(NC(=O)c1nn(Cc2ccc(C#N)cc2)c2ccccc12)C(=O)NCc1nnc(C(N)=O)o1 (centres unmarked) [Example 130]	72.7 nM	14.7 nM	–	–
Cc1nc(CNC(=O)C(NC(=O)c2nn(Cc3ccc(F)cc3)c3ccccc23)C(C)(C)C)no1 (centres unmarked) [Example 131]	–	–	13.2 nM	0.6 nM
CC(C)(C)C(NC(=O)c1nn(Cc2ccc(F)cc2)c2ccccc12)C(=O)N1CCC(O)CC1 (centres unmarked) [Example 133]	–	–	6.35 nM	0.55 nM
CC(C)(C)C(NC(=O)c1nn(Cc2ccc(C#N)cc2)c2ccccc12)C(=O)N1CCC(O)CC1 (centres unmarked) [Example 134]	–	–	326 nM	32.7 nM
CCOC(=O)c1nc(CNC(=O)C(NC(=O)c2nn(Cc3ccc(F)cc3)c3ccccc23)C(C)(C)C)no1 (centres unmarked) [Example 135]	14.3 nM	3.47 nM	–	–
CCOC(=O)c1nc(CNC(=O)C(NC(=O)c2nn(Cc3ccc(C#N)cc3)c3ccccc23)C(C)(C)C)no1 (centres unmarked) [Example 136]	115 nM	10.7 nM	–	–
CC(C)(C)C(NC(=O)c1nn(Cc2ccc(F)cc2)c2ccccc12)C(=O)NCc1noc(C(N)=O)n1 (centres unmarked) [Example 137]	1.69 nM	0.69 nM	–	–
Cc1noc(CNC(=O)C(NC(=O)c2nn(Cc3ccc(F)cc3)c3ccccc23)C(C)(C)C)n1 (centres unmarked) [Example 139]	–	–	6.36 nM	0.82 nM
Cc1noc(CNC(=O)C(NC(=O)c2nn(Cc3ccc(C#N)cc3)c3ccccc23)C(C)(C)C)n1 (centres unmarked) [Example 140]	–	–	645 nM	39.3 nM
CC(C)(C)C(NC(=O)c1nn(Cc2ccc(F)cc2)c2ccccc12)C(=O)NCCN1CCOCC1 (centres unmarked) [Example 141]	41.1 nM	9.42 nM	–	–
CC(C)(C)C(NC(=O)c1nn(Cc2ccc(F)cc2)c2ccccc12)C(=O)NCCc1nnc(C2CC2)o1 (centres unmarked) [Example 148]	32.2 nM	1.8 nM	–	–
CC(C)(C)C(NC(=O)c1nn(Cc2ccc(F)cc2)c2ccccc12)C(=O)N1CCC(O)C1 (centres unmarked) [Example 151]	–	–	6.3 nM	1.63 nM
CC(C)(C)C(NC(=O)c1nn(Cc2ccc(F)cc2)c2ccccc12)C(=O)NC1(CO)CC1 (centres unmarked) [Example 160]	–	–	32.3 nM	1.45 nM
CC(C)(C)C(NC(=O)c1nn(Cc2ccc(C#N)cc2)c2ccc(F)cc12)C(N)=O (centres unmarked) [Example 163]	–	–	180 nM	4.45 nM
CC(C)(C)C(NC(=O)c1nn(Cc2ccc(C#N)cc2)c2ccc(F)cc12)C(=O)NCCO (centres unmarked) [Example 166]	–	–	132 nM	5.14 nM
CC(C)(C)C(NC(=O)c1nn(Cc2ccc(F)cc2)c2ccc(F)cc12)C(N)=O (centres unmarked) [Example 170]	–	–	0.7 nM	0.27 nM
CC(C)(C)C(NC(=O)c1nn(Cc2ccc(F)cc2)c2ccc(F)cc12)C(=O)NC1CC1 (centres unmarked) [Example 171]	–	–	0.44 nM	0.42 nM
CC(C)(C)C(NC(=O)c1nn(Cc2ccc(F)cc2)c2ccc(F)cc12)C(=O)NCCO (centres unmarked) [Example 172]	–	–	0.42 nM	0.42 nM
CC(C)(C)C(NC(=O)c1nn(Cc2ccc(F)cc2)c2ccc(F)cc12)C(=O)NCC(N)=O (centres unmarked) [Example 173]	–	–	5.12 nM	2.37 nM
CC(C)(C)C(NC(=O)c1nn(Cc2ccc(F)cc2)c2ccc(F)cc12)C(=O)NCCCO (centres unmarked) [Example 174]	–	–	1.81 nM	1.1 nM
